For 13 molecules, AC50 results are on record in ChEMBL document CHEMBL5291721, “A preclinical secondary pharmacology resource illuminates target-adverse drug reaction associations of marketed drugs” (Nat Commun, 2023).

The target of assay [1] is T1, Alpha-2A adrenergic receptor (Homo sapiens, UniProt P08913).
T1 sequence (P08913 whole entry): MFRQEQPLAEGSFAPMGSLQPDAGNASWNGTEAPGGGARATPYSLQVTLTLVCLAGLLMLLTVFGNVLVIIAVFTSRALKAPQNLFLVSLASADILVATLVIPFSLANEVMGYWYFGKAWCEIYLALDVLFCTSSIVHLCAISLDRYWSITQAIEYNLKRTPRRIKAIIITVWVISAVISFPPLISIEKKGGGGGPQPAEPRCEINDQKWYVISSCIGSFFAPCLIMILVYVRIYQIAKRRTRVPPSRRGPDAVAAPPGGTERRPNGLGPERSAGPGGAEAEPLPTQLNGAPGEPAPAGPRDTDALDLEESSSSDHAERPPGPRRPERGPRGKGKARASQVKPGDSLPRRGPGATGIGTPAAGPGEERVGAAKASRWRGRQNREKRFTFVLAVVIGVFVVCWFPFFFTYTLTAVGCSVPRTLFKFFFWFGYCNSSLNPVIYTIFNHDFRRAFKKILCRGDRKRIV
The assay is classed as functional, cell-based.

In assay [2] the target is Beta-1 adrenergic receptor (Homo sapiens, UniProt P08588). The assay is classed as functional.
Sequence of Beta-1 adrenergic receptor (P08588 whole entry): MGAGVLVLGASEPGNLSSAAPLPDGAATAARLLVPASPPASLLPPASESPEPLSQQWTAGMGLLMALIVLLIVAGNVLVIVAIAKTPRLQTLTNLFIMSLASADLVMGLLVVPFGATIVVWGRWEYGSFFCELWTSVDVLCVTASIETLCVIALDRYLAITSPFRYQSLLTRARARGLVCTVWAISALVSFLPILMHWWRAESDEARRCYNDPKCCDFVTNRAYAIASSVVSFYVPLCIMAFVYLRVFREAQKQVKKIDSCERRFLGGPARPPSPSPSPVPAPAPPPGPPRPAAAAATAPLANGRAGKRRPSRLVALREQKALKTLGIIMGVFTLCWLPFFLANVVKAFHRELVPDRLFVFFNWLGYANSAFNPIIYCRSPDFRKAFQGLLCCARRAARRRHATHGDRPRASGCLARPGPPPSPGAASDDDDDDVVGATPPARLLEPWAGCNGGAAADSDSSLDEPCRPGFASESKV
The target of the next assay is Vasopressin V2 receptor (Homo sapiens, UniProt P30518).
Sequence of Vasopressin V2 receptor (P30518 whole entry): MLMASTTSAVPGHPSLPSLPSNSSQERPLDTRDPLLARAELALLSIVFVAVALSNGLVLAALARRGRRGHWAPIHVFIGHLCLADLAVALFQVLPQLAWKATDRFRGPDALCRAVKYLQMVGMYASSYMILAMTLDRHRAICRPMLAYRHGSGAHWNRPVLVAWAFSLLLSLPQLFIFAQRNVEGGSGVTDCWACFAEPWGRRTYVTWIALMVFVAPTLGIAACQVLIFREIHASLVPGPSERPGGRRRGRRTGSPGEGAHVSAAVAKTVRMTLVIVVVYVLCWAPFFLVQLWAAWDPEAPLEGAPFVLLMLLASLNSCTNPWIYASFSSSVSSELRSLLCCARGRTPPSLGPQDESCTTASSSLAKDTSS
In assay [3] the target is T2, Muscarinic acetylcholine receptor M2 (Homo sapiens, UniProt P08172).
T2 sequence (P08172 whole entry): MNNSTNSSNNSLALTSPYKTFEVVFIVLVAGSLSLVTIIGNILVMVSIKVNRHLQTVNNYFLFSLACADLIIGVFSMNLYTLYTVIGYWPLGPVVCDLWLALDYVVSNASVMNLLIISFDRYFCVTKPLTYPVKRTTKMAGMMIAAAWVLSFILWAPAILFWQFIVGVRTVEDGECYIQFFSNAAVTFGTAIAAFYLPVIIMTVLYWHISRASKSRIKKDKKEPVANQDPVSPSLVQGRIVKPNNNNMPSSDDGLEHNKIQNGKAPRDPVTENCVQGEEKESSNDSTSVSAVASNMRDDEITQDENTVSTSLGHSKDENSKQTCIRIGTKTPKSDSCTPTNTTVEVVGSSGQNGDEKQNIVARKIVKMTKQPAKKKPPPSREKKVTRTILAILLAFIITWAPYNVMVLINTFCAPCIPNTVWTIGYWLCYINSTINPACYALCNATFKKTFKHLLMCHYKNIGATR
The assay is classed as functional, cell-based.

For assay [4], the target named is Growth hormone secretagogue receptor type 1 (Homo sapiens, UniProt Q92847).
Sequence of Growth hormone secretagogue receptor type 1 (Q92847 whole entry): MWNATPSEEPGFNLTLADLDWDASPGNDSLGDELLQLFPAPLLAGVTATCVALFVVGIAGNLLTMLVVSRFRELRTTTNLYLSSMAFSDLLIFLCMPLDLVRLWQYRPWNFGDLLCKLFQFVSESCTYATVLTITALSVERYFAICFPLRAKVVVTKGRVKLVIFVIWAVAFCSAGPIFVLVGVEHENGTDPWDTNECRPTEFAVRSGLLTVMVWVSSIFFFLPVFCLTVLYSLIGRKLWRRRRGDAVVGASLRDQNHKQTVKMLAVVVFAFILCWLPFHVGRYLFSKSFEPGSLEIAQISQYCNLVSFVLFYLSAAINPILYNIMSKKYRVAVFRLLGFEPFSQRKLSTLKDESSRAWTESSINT
The target in assay [5] is T3, 5-hydroxytryptamine receptor 1A (Homo sapiens, UniProt P08908).
T3 sequence (P08908 whole entry): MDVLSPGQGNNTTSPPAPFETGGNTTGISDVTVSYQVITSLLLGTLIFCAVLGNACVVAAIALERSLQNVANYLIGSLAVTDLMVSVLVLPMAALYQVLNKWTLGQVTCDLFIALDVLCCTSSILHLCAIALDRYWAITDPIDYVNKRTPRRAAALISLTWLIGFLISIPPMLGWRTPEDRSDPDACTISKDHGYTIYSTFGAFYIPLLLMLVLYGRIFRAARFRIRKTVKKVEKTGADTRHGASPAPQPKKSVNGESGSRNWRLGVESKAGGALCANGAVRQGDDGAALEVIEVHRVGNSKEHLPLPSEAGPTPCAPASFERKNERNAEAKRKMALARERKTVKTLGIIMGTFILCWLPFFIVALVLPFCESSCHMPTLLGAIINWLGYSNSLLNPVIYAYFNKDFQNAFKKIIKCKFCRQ
The assay is classed as functional, cell-based.

Assay [6] deals with T4, 5-hydroxytryptamine receptor 2A (Homo sapiens, UniProt P28223). The assay is classed as functional, cell-based.
T4 sequence (P28223 whole entry): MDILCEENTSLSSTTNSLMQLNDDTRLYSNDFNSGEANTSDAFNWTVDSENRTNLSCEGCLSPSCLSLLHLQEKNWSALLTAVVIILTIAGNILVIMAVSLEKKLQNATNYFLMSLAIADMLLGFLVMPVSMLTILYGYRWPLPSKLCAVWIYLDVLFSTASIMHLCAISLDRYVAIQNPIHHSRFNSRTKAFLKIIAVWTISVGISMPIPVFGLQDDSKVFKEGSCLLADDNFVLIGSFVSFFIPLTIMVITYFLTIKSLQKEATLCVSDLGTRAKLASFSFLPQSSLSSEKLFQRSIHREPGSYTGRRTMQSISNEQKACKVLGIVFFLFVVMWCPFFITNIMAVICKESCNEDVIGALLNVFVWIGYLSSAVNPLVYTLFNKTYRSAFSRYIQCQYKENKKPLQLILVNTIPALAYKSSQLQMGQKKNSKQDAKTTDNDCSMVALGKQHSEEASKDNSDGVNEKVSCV
The target of assay [7] is T4, 5-hydroxytryptamine receptor 2A. The assay is classed as functional, cell-based. The source holds these as a separate data set.
Assay [8] deals with T5, Prostaglandin G/H synthase 1 (Rattus norvegicus, UniProt Q63921).
T5 sequence (Q63921 whole entry): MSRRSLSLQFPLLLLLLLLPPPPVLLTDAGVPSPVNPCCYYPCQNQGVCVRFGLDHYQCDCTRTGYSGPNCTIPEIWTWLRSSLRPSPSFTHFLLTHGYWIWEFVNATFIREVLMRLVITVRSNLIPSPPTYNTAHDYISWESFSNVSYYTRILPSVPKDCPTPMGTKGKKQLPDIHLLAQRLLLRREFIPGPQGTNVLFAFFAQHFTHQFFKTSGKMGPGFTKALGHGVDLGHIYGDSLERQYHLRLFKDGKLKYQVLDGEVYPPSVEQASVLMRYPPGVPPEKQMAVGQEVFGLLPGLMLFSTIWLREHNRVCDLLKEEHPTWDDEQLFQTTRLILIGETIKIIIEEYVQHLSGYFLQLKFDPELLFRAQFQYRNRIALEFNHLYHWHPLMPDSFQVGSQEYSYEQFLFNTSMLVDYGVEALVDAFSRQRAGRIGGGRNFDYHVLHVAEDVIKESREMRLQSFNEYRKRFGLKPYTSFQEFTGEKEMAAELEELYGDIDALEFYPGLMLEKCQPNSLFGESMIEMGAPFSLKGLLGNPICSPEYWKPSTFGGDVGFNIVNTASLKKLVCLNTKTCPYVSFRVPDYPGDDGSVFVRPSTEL
The assay is classed as functional.

The target of assay [9] is cGMP-inhibited 3',5'-cyclic phosphodiesterase 3A (Homo sapiens, UniProt Q14432). The assay is classed as functional.
Sequence of cGMP-inhibited 3',5'-cyclic phosphodiesterase 3A (Q14432 whole entry): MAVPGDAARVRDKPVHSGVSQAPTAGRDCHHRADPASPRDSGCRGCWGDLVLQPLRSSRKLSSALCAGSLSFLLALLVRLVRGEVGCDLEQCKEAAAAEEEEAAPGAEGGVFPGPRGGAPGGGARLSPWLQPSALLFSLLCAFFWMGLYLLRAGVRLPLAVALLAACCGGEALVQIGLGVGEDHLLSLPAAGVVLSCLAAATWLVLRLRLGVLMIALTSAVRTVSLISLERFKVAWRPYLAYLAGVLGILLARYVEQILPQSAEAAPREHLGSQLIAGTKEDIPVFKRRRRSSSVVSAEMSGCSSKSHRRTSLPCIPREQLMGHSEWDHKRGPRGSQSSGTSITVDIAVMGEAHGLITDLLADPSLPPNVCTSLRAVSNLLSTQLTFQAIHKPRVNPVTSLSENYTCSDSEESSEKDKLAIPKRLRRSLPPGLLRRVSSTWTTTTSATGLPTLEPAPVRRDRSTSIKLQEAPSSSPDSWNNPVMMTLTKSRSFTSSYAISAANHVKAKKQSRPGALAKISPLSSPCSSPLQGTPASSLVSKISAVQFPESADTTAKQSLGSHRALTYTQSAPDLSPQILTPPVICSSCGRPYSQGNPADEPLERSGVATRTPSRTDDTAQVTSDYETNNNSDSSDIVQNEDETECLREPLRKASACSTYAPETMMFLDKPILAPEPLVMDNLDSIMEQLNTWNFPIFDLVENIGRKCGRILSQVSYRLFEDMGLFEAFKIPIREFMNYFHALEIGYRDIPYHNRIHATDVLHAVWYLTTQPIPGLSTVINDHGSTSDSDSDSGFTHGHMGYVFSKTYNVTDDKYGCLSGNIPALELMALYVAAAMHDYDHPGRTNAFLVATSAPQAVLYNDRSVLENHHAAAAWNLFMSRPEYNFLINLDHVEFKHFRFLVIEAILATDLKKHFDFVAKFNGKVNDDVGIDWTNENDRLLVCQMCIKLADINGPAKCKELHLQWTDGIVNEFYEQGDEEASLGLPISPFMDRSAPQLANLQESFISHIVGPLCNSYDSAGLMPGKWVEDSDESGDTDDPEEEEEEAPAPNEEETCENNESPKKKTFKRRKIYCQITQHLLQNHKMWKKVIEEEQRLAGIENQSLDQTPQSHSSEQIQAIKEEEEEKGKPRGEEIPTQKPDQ
Another assay concerns the target Histamine H3 receptor (Homo sapiens, UniProt Q9Y5N1).
In a further assay the target is T6, Thromboxane A2 receptor (Homo sapiens, UniProt P21731).
T6 sequence (P21731 whole entry): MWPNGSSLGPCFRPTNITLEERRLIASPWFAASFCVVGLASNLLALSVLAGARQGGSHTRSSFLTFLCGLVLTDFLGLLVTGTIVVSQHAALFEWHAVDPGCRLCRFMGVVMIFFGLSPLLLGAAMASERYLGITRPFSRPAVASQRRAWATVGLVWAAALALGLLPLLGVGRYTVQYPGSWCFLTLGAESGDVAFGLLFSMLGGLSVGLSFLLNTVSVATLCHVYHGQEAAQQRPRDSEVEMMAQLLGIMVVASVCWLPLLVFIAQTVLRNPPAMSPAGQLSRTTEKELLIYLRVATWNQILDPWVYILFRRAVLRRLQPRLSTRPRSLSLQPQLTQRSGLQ
Note: assay procedure not described here.

Sequence of Histamine H3 receptor (Q9Y5N1 whole entry): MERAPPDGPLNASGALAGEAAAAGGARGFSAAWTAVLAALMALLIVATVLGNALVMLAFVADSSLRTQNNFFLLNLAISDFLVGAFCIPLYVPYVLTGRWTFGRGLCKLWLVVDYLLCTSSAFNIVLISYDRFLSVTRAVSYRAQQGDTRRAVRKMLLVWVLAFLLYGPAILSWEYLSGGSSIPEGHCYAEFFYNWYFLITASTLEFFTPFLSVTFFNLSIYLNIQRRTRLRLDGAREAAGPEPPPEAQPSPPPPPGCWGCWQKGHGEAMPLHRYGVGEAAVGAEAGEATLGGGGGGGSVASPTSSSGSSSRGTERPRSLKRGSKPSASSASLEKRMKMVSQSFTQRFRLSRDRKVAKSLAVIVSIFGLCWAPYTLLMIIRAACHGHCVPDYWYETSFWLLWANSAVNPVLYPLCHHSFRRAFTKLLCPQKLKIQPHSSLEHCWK

Usually AC50 stands for the midpoint of the concentration-response curve, whichever way the signal moves. A high value points to weaker potency. Consider `CCCCC1(CC)C(=O)NC(=O)NC1=O` [BUTETHAL], for which the AC50 (in assay [1]; in [2]; on Vasopressin V2 receptor; in [3]; in [4]; in [5]) was over 30 µM throughout. The AC50 (in assay [6]; in [7]; in assay [8]; in assay [9]; on Histamine H3 receptor) was over 30 µM throughout.

Regarding `C=CC1=C(C(=O)O)N2C(=O)[C@@H](NC(=O)/C(=N\OCC(=O)O)c3csc(N)n3)[C@H]2SC1` [CEFIXIME], the AC50 (in assay [1]; in assay [2]; at Vasopressin V2 receptor; in assay [3]; in [4]; in assay [5]) was over 30 µM throughout. Also, the AC50 (in assay [6]; in [7]; in assay [8]; in assay [9]; at Histamine H3 receptor) was over 30 µM each time.

Take `CO[C@@]1(NC(=O)Cc2cccs2)C(=O)N2C(C(=O)O)=C(COC(N)=O)CS[C@@H]21` [CEFOXITIN]: the AC50 (in [1]; in assay [2]; at Vasopressin V2 receptor; in assay [3]; in assay [4]; in assay [5]) was over 30 µM each time. Moreover, the AC50 (in [6]; in assay [7]; in assay [8]; in assay [9]; at Histamine H3 receptor) was over 30 µM each time.

As for `CCN(CC)CCOC(=O)c1ccc(N)cc1Cl` [CHLOROPROCAINE], the AC50 in assay [1] is over 30 µM; in assay [2], over 30 µM; at Vasopressin V2 receptor, over 30 µM; in [3] it was 29 µM; in assay [4] it was over 30 µM; in assay [5], over 30 µM. Also, the AC50 is over 30 µM in [6]; over 30 µM in assay [7]; over 30 µM in assay [8]; over 30 µM in assay [9]; 4 µM at Histamine H3 receptor.

Consider `N[C@H](Cc1cc(I)c(Oc2cc(I)c(O)c(I)c2)c(I)c1)C(=O)O` [DEXTROTHYROXINE], for which the half-maximal activity concentration (AC50) is over 10 µM in [1]; over 10 µM in assay [2]; over 30 µM at Vasopressin V2 receptor; over 10 µM in assay [3]; over 30 µM in [4]; over 10 µM in assay [5]. Moreover, the AC50 is over 30 µM in assay [6]; over 30 µM in assay [8]; 21.9 µM at Thromboxane A2 receptor; over 10 µM in [9]; over 10 µM on Histamine H3 receptor.

Turning to `C[C@@H]1C[C@H]2[C@@H]3C[C@H](F)C4=CC(=O)C=C[C@]4(C)[C@@]3(F)[C@@H](O)C[C@]2(C)[C@H]1C(=O)CO` [DIFLUCORTOLONE], the AC50 in assay [6], in assay [7], in [8] and in [9] was over 30 µM in each case.

On to `O=C(O)c1ccccc1OP(=O)(O)O` [FOSFOSAL], for which the AC50 (in assay [1]; in [2]; at Vasopressin V2 receptor; in assay [3]; in assay [4]; in assay [5]) was over 30 µM each time. The AC50 in [6] was over 30 µM; in [7], over 30 µM; in assay [8], over 30 µM; in assay [9] it was 9.8 µM; on Histamine H3 receptor, over 30 µM.

In the case of `CCCC[C@H](C)C[C@H](O)/C=C/[C@H]1[C@H](O)CC(=O)[C@@H]1CCCC/C=C/C(=O)O` [LIMAPROST], the AC50 (in assay [1]; in assay [2]; at Vasopressin V2 receptor; in assay [3]; in assay [4]; in [6]) was over 30 µM each time. In addition, the AC50 (in assay [7]; in [8]; in [9]; at Histamine H3 receptor) was over 30 µM each time.

Take `Cc1ccc(NC(=O)C2(c3ccc4c(c3)OC(F)(F)O4)CC2)nc1-c1cccc(C(=O)O)c1` [LUMACAFTOR]: the AC50 (in assay [1]; in [2]; at Vasopressin V2 receptor; in [3]; in [4]; in assay [5]) was over 30 µM each time. The AC50 (in assay [6]; in assay [7]; in assay [8]; in assay [9]; at Histamine H3 receptor) was over 30 µM each time.

For the molecule `CCOC(=O)Nc1ccc2c(c1)N(C(=O)CCN1CCOCC1)c1ccccc1S2` [MORICIZINE], the AC50 in assay [1] is over 30 µM; in assay [2], over 30 µM; on Vasopressin V2 receptor, over 30 µM; in [3], over 30 µM; in assay [4], over 30 µM; in assay [5] it was 13 µM. Further, the AC50 (in [6]; in [7]; in assay [8]; in [9]; on Histamine H3 receptor) was over 30 µM in each case.

With `COc1cc2nccc(Oc3ccc(NC(=O)Nc4cc(C)on4)c(Cl)c3)c2cc1OC` [TIVOZANIB], the AC50 in assay [3] is over 30 µM; in assay [6] it was over 30 µM; in assay [7] it was 24 µM; in assay [8], over 3 µM; at Thromboxane A2 receptor, over 3 µM; in [9], 16 µM.

Turning to `COc1cc2c(Nc3ccc(Br)cc3F)ncnc2cc1OCC1CCN(C)CC1` [VANDETANIB], the AC50 in assay [1] was 2.1 µM; in assay [2] it was over 30 µM; at Vasopressin V2 receptor, over 30 µM; in assay [3] it was 21 µM; in assay [4], 26 µM; in assay [5], over 30 µM. Besides, the AC50 in assay [6] was over 30 µM; in assay [7], 14 µM; in assay [8], over 30 µM; in [9], over 30 µM; on Histamine H3 receptor, 2.1 µM.

Consider COLISTIN, for which the AC50 in assay [1], in [5], in assay [6], in assay [7] and in assay [9] was over 30 µM throughout.
